# Measurements taken from patent US9131716B2, “Use of neoflavonoids for flavor modification” (SYMRISE AG, priority 2011, dated 2015).
# Marks after values point to notes of the source that are not given here.
# How the values were obtained:
# [1] = Reduction of bitterness of a naringin solution, panel of experts; type: in vivo; conditions: 100 ppm naringin
# Description: (§1) In order to quantify the reduction (i.e. the masking or decrease) of the impression of bitterness in a sample, the bitterness of a solution containing 500 ppm caffeine or 200 ppm theobromine or 100 ppm naringin or 250 ppm salicin was compared by a panel of experts in each case with a sample that contained 500 ppm caffeine or 200 ppm theobromine or 100 ppm naringin or 250 ppm salicin and additionally the amount stated in each case of a substance to be assessed (with respect to capacity for reducing bitterness) (classification: 1 [not bitter] through 10 [extremely bitter]). The evaluation, i.e. calculation of the reduction (in %) of the impression of bitterness, was based in each case on the mean values of the appraisals of the panel of experts.
# [2] = Reduction of bitterness of a caffeine solution, panel of experts; type: in vivo; conditions: 500 ppm caffeine; for Impression of bitterness (1-10) b) with test substance: scale 1-10
# Description: as §1
# [3] = Reduction of bitterness of a theobromine solution, panel of experts; type: in vivo; conditions: 300 ppm theobromine; for Impression of bitterness (1-10) b) with test substance: scale 1-10
# [4] = Reduction of bitterness of a salicin solution, panel of experts; type: in vivo; conditions: 250 ppm salicin, 50 ppm test substance
# Description: as §1
# [5] = Reduction of bitterness/astringency of an EGCG solution as a function of time, panel of experts; type: in vivo; conditions: 750 ppm EGCG + 125 ppm ascorbic acid, 50 ppm test substance
# Description: In order to quantify the reduction (i.e. the masking or decrease) of the impression of bitterness or astringency in a sample over a specified course of time, the bitterness, or astringency of a solution containing 750 ppm epigallocatechin gallate (EGCG) and 125 ppm ascorbic acid was compared by a panel of experts in each case with a sample that contained 750 ppm epigallocatechin gallate, 125 ppm ascorbic acid and additionally the amount stated in each case of a substance to be assessed (with respect to capacity for reducing bitterness), in this case a racemic mixture of compounds (7) and (8) (classification: 1 [not bitter] through 10 [extremely bitter]; or 1 [not astringent] through 10 [extremely astringent]). […] The samples were assessed by the members of the panel one after another after neutralization. The evaluation, i.e. calculation of the reduction (in %) of the impression of bitterness/astringency was based at each measurement time point in each case on the mean values of the appraisals of the panel of experts for the epigallocatechin gallate solution and the sample to be compared, containing epigallocatechin gallate and a substance to be assessed.
# [6] = test system: BGC823 cancer cell line; conditions: from CN 101906090; cited from earlier work
# [7] = test system: Caco-2 cells; conditions: from Chem. Pharm. Bull. 2010, 58, 242-246; cited from earlier work
# [8] = 25 ppm test substance, scale 1-10
compound,measurement,setting,value
"O=C1CC(c2ccccc2O)c2c(O)cc(O)cc2O1 (racemic) [(1) + (2), 5,7-dihydroxy-4-(2-hydroxyphenyl)chroman-2-one]",% reduction of the impression of bitterness,[1]; 5 ppm test substance,31.7%
same,Impression of bitterness (1-10) b) with test substance,"[1]; 5 ppm test substance, scale 1 [not bitter] through 10 [extremely bitter]",3.7 ± 2.6
"COc1cc(C2CC(=O)Oc3cc(O)cc(O)c32)ccc1O (racemic) [(5) + (6), 5,7-dihydroxy-4-(4-hydroxy-3-methoxyphenyl)chroman-2-one]",% reduction of the impression of bitterness,[1]; 25 ppm test substance,49.0%
same,Impression of bitterness (1-10) b) with test substance,[1]; [8],3.1 ± 1.4
same,% reduction of the impression of bitterness,[2]; 50 ppm test substance,23.5%
same,Impression of bitterness (1-10) b) with test substance,[2]; 50 ppm test substance,3.0 ± 1.3
same,% reduction of the impression of bitterness,[3]; 25 ppm test substance,30.3%
same,Impression of bitterness (1-10) b) with test substance,[3]; 25 ppm test substance,3.1 ± 1.6
same,% reduction of the impression of bitterness,[4],11.1%
same,Impression of bitterness (1-10) b) with test substance,[4]; scale 1-10,5.9 ± 2.5
"O=C1CC(c2ccc(O)cc2)c2c(O)cc(O)cc2O1 (racemic) [(7) + (8), 5,7-dihydroxy-4-(4-hydroxyphenyl)chroman-2-one]",% reduction of the impression of bitterness,[1]; 25 ppm test substance,48.6%
same,Impression of bitterness (1-10) b) with test substance,[1]; [8],2.9 ± 1.9
same,% reduction of the impression of bitterness,[2]; 25 ppm test substance,15.5%
same,Impression of bitterness (1-10) b) with test substance,[2]; 25 ppm test substance,3.4 ± 1.4
same,% reduction of the impression of bitterness,[3]; 10 ppm test substance,21.7%
same,Impression of bitterness (1-10) b) with test substance,[3]; 10 ppm test substance,3.6 ± 1.5
same,% reduction of the impression of astringency,[5]; time 0 s,−1%
same,% reduction of the impression of bitterness,[5]; time 0 s,−14%
same,% reduction of the impression of astringency,[5]; time 10 s,−7%
same,% reduction of the impression of bitterness,[5]; time 10 s,−22%*
same,% reduction of the impression of astringency,[5]; time 30 s,−7%
same,% reduction of the impression of bitterness,[5]; time 30 s,−25%*
same,% reduction of the impression of astringency,[5]; time 50 s,−19%
same,% reduction of the impression of bitterness,[5]; time 50 s,−35%*
same,% reduction of the impression of astringency,[5]; time 70 s,−15%
same,% reduction of the impression of bitterness,[5]; time 70 s,−29%
"O=C1CC(c2ccc(O)cc2)c2ccc(O)cc2O1 (racemic) [(17) + (18), 7-hydroxy-4-(4-hydroxyphenyl)chroman-2-one]",% reduction of the impression of bitterness,[1]; 25 ppm test substance,44.3%
same,Impression of bitterness (1-10) b) with test substance,[1]; [8],3.0 ± 1.6
"COc1cc(C2CC(=O)Oc3cc(O)ccc32)ccc1O (racemic) [(23) + (24), 7-hydroxy-4-(4-hydroxy-3-methoxyphenyl)chroman-2-one]",% reduction of the impression of bitterness,[3]; 25 ppm test substance,22.4%
same,Impression of bitterness (1-10) b) with test substance,[3]; 25 ppm test substance,3.5 ± 1.6
COc1ccc(C2CC(=O)Oc3cc(O)ccc32)cc1O (centres unmarked) [(39)],effectiveness against the BGC823 cancer cell line,[6],effective
COc1cc(C2CC(=O)Oc3cc(O)cc(OC)c32)cc(OC)c1OC (centres unmarked) [(40)],cytotoxicity against Caco-2 cells,[7],strong cytotoxicity
